Results on two compounds are retold here after patent publication US9314438B2, “Elevation of the plasma HDL-cholesterol level” (Aarhus Universitet, priority 2007, dated 2016).

For data set [1], the system named is normal Wistar rats given a normal chow diet. The data set is described as follows: In vivo study: isosteviol treatment of normal Wistar rats on chow diet for 20 weeks (groups 1 and 2). The settings on record: for plasma HDL-cholesterol level increase, Δ in %: chow diet + isosteviol 0.03 g/kg/day. The text has this:
(§1) 44 normal wistar rats at the age of about 6 weeks and a bodyweight of about 230 g, was randomised into 4 groups, with 11 in each group. Group 1 and 2 were fed with standard chow diet±Isosteviol (0.03 g/kg/day). Group 3 and 4 were diet induced to be hyperlipidemic by feeding with a high cholesterol containing diet (1.63% g cholesterol, 0.41% g Cholic acid, 16.3% g sunflower oil)±Isosteviol (0.03 g/kg/day). In the experiment was used Isosteviol with a purity of 99.4%. The treatment period was 20 weeks.
(§2) Blood samples were analyzed for hormones and lipids at the start and end of the study. The blood samples were taken from the tail or eye into glasses containing heparine/aprotinin. The samples were centrifuged and the plasma was frozen. The following were analyzed: total fasting plasma triglyceride level, total plasma cholesterol level, and plasma HDL-cholesterol level. Liver samples were analysed for mRNA expression of genes like SREBP-1, which have relation to the fat metabolism. The body weight was measured throughout the study period together with the food intake.
(§3) The fasting total plasma cholesterol level and the HDL-cholesterol level were measured by an enzymatic colorimetric test, the “cholesterol CHOD-PAP” method (cholesterol oxidase±phenol 4 amino phenazon), based on Trinder, using commercially available test kits (Roche Diagnostics, Basel, Germany), and the Cobas Mira instrument (Roche Diagnostics). The fasting plasma triglyceride level was measured by the enzymatic colorimetric GPO-PAP method (Glycerol phosphate oxidase±phenol 4 amino phenazon), based on Trinder, using commercially available test kits (Roche Diagnostics, Basel, Germany), and the Cobas Mira instrument (Roche Diagnostics).
(§4) Data are expressed as means±standard error of the mean (SEM). Statistical significance between two groups was evaluated using a two-tailed t test. A p value of less than 0.05 was considered statistically significant. For statistical analysis were used student t-tests and two way ANOVA-tests.
(§5) The setup differs from the setup in Example 1 by the use of non-diabetic rats versus the diabetic hyperlipidemic KKAY mouse model. In the present study the effect on HDL is investigated by comparing rats with a normal cholesterol level with rats having a diet induced elevated plasma cholesterol level.

For a further data set, the system named is KKAy mice. Put plainly: In vivo study: isosteviol treatment of KKAy mice for 9 weeks (plasma lipids, body weight, food intake). As for the experimental part: Twenty male KKAy-mice (Clea Japan, Tokyo, Japan), all 5 week-old, weighing 22-25 g were randomized to 2 groups and treated for 9 weeks with; A: standard chow diet (control); B: standard chow diet+20 mg/kg BW of ISV. As a non-diabetic control group (C), ten normal C57BL-mice (Taconic, Ry, Denmark) were fed with standard chow diet (control to A), see FIG. 2 for outline of the study. The food intake was measured halfway through the study. The composition of the standard chow diet dry matter was: Protein 24%, carbohydrate 71%, and Lipids 5%. The drug isosteviol (ISV, ent-16-ketobeyeran-19-oic acid; Wako Pure Chemical Industries, Osaka, Japan) was incorporated in the mice food pellet and administered orally. The Danish Council for Animal experiments has approved the study.
Hormones and lipids were measured from blood sample at start and end of the treatment period. Blood sample was taken from the tail of the animals on chilled tubes containing heparin/aprotinin and centrifuged (4000 g, 60 seconds, 4° C.), and plasma was frozen for subsequent analysis of insulin, glucose, triglycerides, total cholesterol and HDL-cholesterol. Fasting blood glucose, as well as bodyweight (BW), was measured before and after intervention.
Plasma blood glucose was determined using the glucose oxidase method (GOD-PAP, Boehringer Mannheim, GmbH Germany). Insulin was determined by radioimmunoassay with a guinea pig antiporcine insulin antibody (PNILGP4, Novo Nordisk, Bagsvaerd, Denmark), and mono-[^125I]-(TyrA14) labeled human insulin (Novo Nordisk) as tracer and rat insulin (Novo Nordisk) as standard. We separated free and bound radioactivity using ethanol (See Heding L. G. Determination of total serum insulin (IRI) in insulin-treated diabetic patients; Diabetologia 1972; 8:260-266). Interassay and intra-assay variation was below 10%. […] The fasting plasma triglyceride level was measured by the enzymatic colorimetric GPO-PAP method (Glycerol phosphate oxidase±phenol 4 amino phenazon), based on Trinder, using commercially available test kits (Roche Diagnostics, Basel, Germany), and the Cobas Mira instrument (Roche Diagnostics). The fasting total plasma cholesterol level and the HDL-cholesterol level were measured by an enzymatic colorimetric test, the “cholesterol CHOD-PAP” method (cholesterol oxidase±phenol 4 amino phenazon), based on Trinder, using commercially available test kits (Roche Diagnostics, Basel, Germany), and the Cobas Mira instrument (Roche Diagnostics).
Data are expressed as means±standard error of the mean (SEM). Statistical significance between two groups was evaluated using a two-tailed t test. A p value of less than 0.05 was considered statistically significant. For plasma glucose calculations, analysis of covariance with adjustment for end body weight was performed.

Data set [2] concerns normal Wistar rats given a high fat diet. The data set is described as follows: In vivo study: isosteviol treatment of normal Wistar rats on high fat diet for 20 weeks (groups 3 and 4). The settings on record: for plasma HDL-cholesterol level increase, Δ in %: high fat diet + isosteviol 0.03 g/kg/day.
Excerpt: as §1, §2, §3, §4, §5

Data set [3] deals with patients at high risk for coronary events. The settings on record: phase 3 clinical trial, active treatment group; trial terminated; cited from earlier work.
Where [4] appears, read: Chow +Isosteviol, end (20 weeks).
[5] abbreviates: Chow +Isosteviol, start of study.
Setting [6] is: start to end (20 weeks), listed as Isosteviol.
Setting [7] is: chow diet + isosteviol, start to end (20 weeks).
The mark [8] stands for this setting: comparing group 2 with group 1 at the end of the study period.
The mark [9] stands for this setting: group 2, chow + isosteviol, start to end (20 weeks).
Where [10] appears, read: KKAy mice, 20 mg/kg BW/day, after 9 weeks, n=10, in mM.
[11] abbreviates: High fat +Isosteviol, end (20 weeks).
[12] abbreviates: High fat +Isosteviol, start of study.
[13] abbreviates: High fat +Isosteviol, start to end.
Setting [14] is: high fat diet + isosteviol, start to end (20 weeks).

As to `C[C@@]12CC[C@@H]3[C@@](CC[C@H]4[C@@]3(C)CCC[C@@]4(C)C(=O)O)(CC1=O)C2` (single isomer, unassigned; ent-16) [isosteviol, ent-16-ketobeyeran-19-oic acid], the “HDL cholesterol, End” value is listed as 1.42 ± 0.08 MM in data set [1] (setting [4]) and 2.45 ± 0.25 MM in data set [2] (setting [11]). Moreover, the “Total Cholesterol, End” value in data set [1] (setting [4]) was 1.67 ± 0.09 MM; in data set [2] (setting [11]), 4.46 ± 0.37 MM. The “HDL cholesterol, Start” value in data set [1] (setting [5]) was found to be 1.25 ± 0.06 MM; in data set [2] (setting [12]), 1.34 ± 0.06 MM. Besides, the “Total Cholesterol, Start” value in data set [1] (setting [5]) is 1.61 ± 0.06 MM; in data set [2] (setting [12]), 1.68 ± 0.1 MM. Further, the “HDL cholesterol Δ Abs” value in data set [1] (Chow +Isosteviol, start to end) is 0.17 ± 0.04 mM; in data set [2] (setting [13]), 1.11 ± 0.26 mM. The “Total Cholesterol Δ Abs” value in data set [1] (Chow +Isosteviol, start to end) is on record as 0.07 ± 0.06 mM; in data set [2] (setting [13]), 2.77 ± 0.38 mM. For the same compound, the “plasma HDL-cholesterol level increase, Δ in %” value is recorded as 14% in data set [1] (start to end (20 weeks)), 14% in data set [1] (setting [6]), 88% in data set [2] (start to end (20 weeks)) and 88% in data set [2] (setting [6]). The “fasting total plasma cholesterol level increase, Δ in %” value in data set [1] (setting [7]) is listed as 4%; in data set [1] (chow diet + isosteviol, start to end (20 weeks), listed as Isosteviol) it was 4%; in data set [2] (setting [14]) it was 175%; in data set [2] (high fat diet + isosteviol, start to end (20 weeks), listed as Isosteviol), 175%. Also, the “fasting total plasma cholesterol level Δ” value amounted to 0.07 ± 0.06 mmol/L in data set [1] (setting [7]) and 2.77 ± 0.38 mmol/L in data set [2] (setting [14]). The “reduction in triglyceride concentration, Δchange in %” value in data set [1] (setting [8]) is 61±18%. Also, the “reduction in triglyceride concentration, Δchange in absolute values” in data set [1] (setting [8]) is -0.28 ± 0.10 mmol/L. The “body weight reduced by” value in data set [1] (group 2 (chow + isosteviol) compared to group 1 (chow control), 20 weeks) is recorded as 16%. Also, the “body weight, mean±SEM” value in data set [1] (group 2, chow + isosteviol, 10 weeks of treatment) worked out at 371 ± 10 g; in data set [1] (group 2, chow + isosteviol, after 20 weeks of treatment) it was 388 ± 13 g. Also, the “change in the fasting plasma triglyceride concentration” value in data set [1] (setting [9]) is -0.16 ± 0.09 mmol/L. In addition, in data set [1] (setting [9]), the “decrease in the fasting plasma triglyceride concentration” value came out at 23%. Further, the deaths entry is given as “No deaths” in data set [1] (group 2, chow diet + isosteviol, 20 weeks) and “No deaths” in data set [2] (group 4, high fat diet + isosteviol, 20 weeks, two deaths in group 3 without isosteviol). Besides, the “fasting plasma triglyceride (TG) level” value was 1.25 mmol/L with KKAy mice (ISV group, age 5 week (start of treatment)) and 2.02 mmol/L with KKAy mice (ISV group, age 14 weeks (after 9 weeks treatment)). In the data set with KKAy mice (ISV group, KKAy control increased 192%), the “TG level increase, age 14 weeks compared to age 5 week” value worked out at 62%. Moreover, the “fasting total plasma cholesterol level increased by” value with KKAy mice (KKAy mice, 20 mg isosteviol/kg body weight/day in chow, after 9 weeks, vs KKAy control) came out at 28%. Also, in the data set on KKAy mice (setting [10]), the “fasting plasma HDL-cholesterol, mean±SEM” value stood at 2.999±0.091. Moreover, the “fasting plasma total cholesterol, mean±SEM” value with KKAy mice (setting [10]) came out at 3.055±0.067. In the data set with KKAy mice (KKAy mice, 20 mg/kg BW/day, after 9 weeks, vs KKAy control), the “plasma HDL-cholesterol concentration increased by” value is recorded as 71%. In the data set on KKAy mice (after 9 weeks treatment), the “plasma TG decreased compared to the KKAy group” value is given as 48%. Besides, the body weight with KKAy mice (after 9 weeks treatment, KKAy control 41.6 g) was 36.3 g. The compound further registered a reduction in weight in the data set with KKAy mice (end of the 9 week treatment period, vs KKAy control) of 13%. Also, the “plasma HDL-cholesterol level Δ (SEM)” value in data set [2] (setting [14]) is 1.11 ± 0.26 mmol/L.

Take `CCOC(=O)N1c2ccc(C(F)(F)F)cc2[C@@H](N(Cc2cc(C(F)(F)F)cc(C(F)(F)F)c2)C(=O)OC)C[C@H]1CC` [torcetrapib]: in data set [3], the mortality entry was “increased mortality”.
